Source: patent publication US11690818B2, “Drug containing liver targeting specific ligand and thyroid hormone receptor agonist” (priority 2018, dated 2023)

What was measured:
[1] = system: db/db mice; assay: Example 4: bone mineral density and body weight of db/db mice; format: in vivo; conditions: Kylo-0100 13.5, Kylo-0101 48.4 μg/kg sc daily
Protocol: (§1) The mice needed to adapt to the environment before the experiment, and healthy mice were selected as test animals, and reared in IVC cages at a density of 5 animals/cage with the litter being changed twice a week.
The body weight was weighed twice a week, and the administration was carried out continuously for 21 days. […] The blood was collected by cardiac puncture, left to stand at room temperature for 2 hours, and centrifuged on a low temperature centrifuge at 3000 RPM for 10 minutes to collect serum, which was then stored in a −80° C. refrigerator for later use. The contents of total cholesterol (TC), low-density lipoprotein (LDL) and triglyceride (TG) in the serum were measured on a blood biochemical analyzer.
On the 18th day of the administration, the mice were intraperitoneally injected with the anesthetic (xylazine combined with ketamine, 10 ml/Kg, IP), and the bone mineral density and body fat ratio of the mice were measured on a bone density meter.

[2] = system: db/db mice; assay: Example 4: serum TC, LDL and TG in db/db mice; format: in vivo; conditions: subcutaneous injection daily for 21 days, Kylo-0100 13.5, Kylo-0101 48.4, Kylo-0102 43.3, Kylo-0103 43.3 μg/kg, vs saline control group
Protocol: as §1
The body weight was weighed twice a week, and the administration was carried out continuously for 21 days. After the last administration, the mice were fasted overnight for 15-16 hours, sacrificed by CO2 anesthesia. The blood was collected by cardiac puncture, left to stand at room temperature for 2 hours, and centrifuged on a low temperature centrifuge at 3000 RPM for 10 minutes to collect serum, which was then stored in a −80° C. refrigerator for later use. The contents of total cholesterol (TC), low-density lipoprotein (LDL) and triglyceride (TG) in the serum were measured on a blood biochemical analyzer.

| SMILES | bone mineral density (BMD) ([1]; 18th day of administration, vs saline control group) | effect on the body weight of mice ([1]; 21 days) | serum TC level reduction rate [2] [%] | serum TG level reduction rate [2] [%] | serum LDL level reduction rate [2] [%] |
| --- | --- | --- | --- | --- | --- |
| N[C@@H](Cc1cc(I)c(Oc2ccc(O)c(I)c2)c(I)c1)C(=O)O [Kylo-0100, triiodothyronine] | significantly lower than that of the saline control group | significant effect | 34.68 | 42.55 |  |
| CC(=O)NC1C(OCCCCC(=O)NCCCNC(=O)CCOCC(COCCC(=O)NCCCNC(=O)CCCCOC2OC(CO)C(O)C(O)C2NC(C)=O)(COCCC(=O)NCCCNC(=O)CCCCOC2OC(CO)C(O)C(O)C2NC(C)=O)NC(=O)CCCCCNC(=O)[C@H](Cc2cc(I)c(Oc3ccc(O)c(I)c3)c(I)c2)NC(=O)OC(C)(C)C)OC(CO)C(O)C1O (stereo partly shown) [Kylo-0103] |  |  | 44.37 | 43.94 | 15.25 |
